Where only a bound is given, the exact number is not on record here.

Here are results for 26 compounds from US11053242B2, “[9,10-dimethoxy-3-(2-methylpropyl)-1H,2H,3H,4H,6H,7H,11BH-pyrido-[2,1-a]isoquinolin-2-yl]methanol and compounds, compositions and methods relating thereto” (Neurocrine Biosciences, Inc., priority 2015, dated 2021).

In data set [1] the target is VMAT2 (human platelet homogenate) (Homo sapiens (Human), UniProt Q05940). Briefly: Human VMAT2 Ki, slightly modified competition binding procedure (Table 11).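 Note: competition binding with 90 min incubation at 25 °C, after which filter-retained radioligand was measured by scintillation counting.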 Particulars: 10 nM 3H-dihydrotetrabenazine.
Protocol: Following incubation at 25° C. for 90 minutes, bound radioligand was collected by rapid filtration onto GF/B glass fiber filters using a Unifilter-96 Harvester (PerkinElmer). Filter plates were pre-treated with 0.1% polyethylenimine and allowed to dry overnight, and following harvesting the filter plates were washed with 800 d VMAT2 binding buffer. Bound radioligand was quantified by scintillation counting using a Topcount NXT (PerkinElmer).
Data set [2] can be described thus: In vitro human intestinal S9 hydrolysis assay (formation of compound 1-1). Particulars: human intestinal S9, 1 uM, 37° C., up to 60 minutes.
Protocol: Compounds (1 uM) were incubated with pooled intestinal S9 subcellular preparations (0.5 mg/mL total protein) from SD rats and humans without the addition of protease inhibitor phenylmethylsulfonylflouride. Incubations were carried out in a potassium phosphate buffer (50 mM). All concentrations were relative to the final incubation volume of 125 uL. Incubations were conducted at 37° C. for 0, 5, 10, 20, 40 and 60 minutes in a water bath and terminated by rapid mixing with 150 uL of ice-cold acetonitrile containing 1% formic acid. Internal standard was added and proteins were precipitated and removed by centrifugation prior to LC/MS analysis.

Sequence of VMAT2 (human platelet homogenate) (Q05940 whole entry): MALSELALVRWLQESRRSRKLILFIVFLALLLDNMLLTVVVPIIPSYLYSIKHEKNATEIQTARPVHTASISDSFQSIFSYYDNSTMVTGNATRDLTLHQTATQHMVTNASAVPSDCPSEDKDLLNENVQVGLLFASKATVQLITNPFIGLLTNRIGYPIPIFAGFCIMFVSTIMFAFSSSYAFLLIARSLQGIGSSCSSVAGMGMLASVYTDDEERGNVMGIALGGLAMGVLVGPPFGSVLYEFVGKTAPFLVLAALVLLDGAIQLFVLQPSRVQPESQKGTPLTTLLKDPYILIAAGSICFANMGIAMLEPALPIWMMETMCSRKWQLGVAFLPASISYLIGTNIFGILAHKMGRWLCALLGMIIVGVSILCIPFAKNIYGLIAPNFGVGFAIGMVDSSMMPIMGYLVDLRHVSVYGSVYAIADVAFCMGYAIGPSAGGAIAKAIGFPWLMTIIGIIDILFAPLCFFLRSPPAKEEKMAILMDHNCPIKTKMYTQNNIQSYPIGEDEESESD

As for `COc1cc2c(cc1OC)[C@H]1C[C@@H](COC(=O)CC3(CC(=O)O)CCCC3)[C@H](CC(C)C)CN1CC2` [Compound 3-9], the Ki in data set [1] was in the range of 10 to 500 nM. Further, the “S9 Assay (ability to form compound 1-1)” value in data set [2] is “++”.
Turning to `COc1cc2c(cc1OC)[C@H]1C[C@@H](COC(=O)CCCCC(=O)O)[C@H](CC(C)C)CN1CC2` [Compound 3-10], the Ki in data set [1] was over 500 nM. Further, the “S9 Assay (ability to form compound 1-1)” value in data set [2] is on record as “+++”.
`COc1cc2c(cc1OC)[C@H]1C[C@@H](COC(=O)C(C)(C)CC(=O)O)[C@H](CC(C)C)CN1CC2` [Compound 3-11] showed a Ki in data set [1] of over 500 nM. Besides, the “S9 Assay (ability to form compound 1-1)” value in data set [2] is “++”.
Taken in the same sequence, the figures for `COc1cc2c(cc1OC)[C@H]1C[C@@H](COC(=O)CCC(C)(C)C(=O)O)[C@H](CC(C)C)CN1CC2` [Compound 3-12] were 10 to 500 nM and “+++”.
On the same counts, the results for `COc1cc2c(cc1OC)[C@H]1C[C@@H](COC(=O)CCC(=O)O)[C@H](CC(C)C)CN1CC2` [Compound 3-13] are 10 to 500 nM and “++”.
On the same counts, the results for `COc1cc2c(cc1OC)[C@H]1C[C@@H](COC(=O)C3CCNCC3)[C@H](CC(C)C)CN1CC2` [Compound 4-1, [(2R,3S,11bR)-9,10-dimethoxy-3-(2-methylpropyl)-1H,2H,3H,4H,6H,7H,11bH-pyrido[2,1-a]isoquinolin-2-yl]methyl piperidine-4-carboxylate] are under 10 nM and “++”.
In data set [1], `COc1cc2c(cc1OC)[C@H]1C[C@@H](COC(=O)[C@H]3CCNC3)[C@H](CC(C)C)CN1CC2` [Compound 4-7, [(2R,3S,11bR)-9,10-dimethoxy-3-(2-methylpropyl)-1H,2H,3H,4H,6H,7H,11bH-pyrido[2,1-a]isoquinolin-2-yl]methyl (3S)-pyrrolidine-3-carboxylate] showed a Ki of under 10 nM. For the same compound, the “S9 Assay (ability to form compound 1-1)” value in data set [2] is on record as “++”.
Taken in the same sequence, the figures for `COc1cc2c(cc1OC)[C@H]1C[C@@H](COC(=O)C3CCNC3)[C@H](CC(C)C)CN1CC2` (stereo partly drawn) [Compound 4-8, [(2R,3S,11bR)-9,10-dimethoxy-3-(2-methylpropyl)-1H,2H,3H,4H,6H,7H,11bH-pyrido[2,1-a]isoquinolin-2-yl]methyl pyrrolidine-3-carboxylate] were under 10 nM and “++”.
Compound `COc1cc2c(cc1OC)[C@H]1C[C@@H](COC(=O)CC3CCCNC3)[C@H](CC(C)C)CN1CC2` (stereo partly drawn) [Compound 4-10, [(2R,3S,11bR)-9,10-dimethoxy-3-(2-methylpropyl)-1H,2H,3H,4H,6H,7H,11bH-pyrido[2,1-a]isoquinolin-2-yl]methyl 2-(piperidin-3-yl)acetate] gave an inhibition constant (Ki) in data set [1] of under 10 nM. Also, the “S9 Assay (ability to form compound 1-1)” value in data set [2] is listed as “++”.
Taken in the same sequence, the figures for `COc1cc2c(cc1OC)[C@H]1C[C@@H](COC(=O)[C@H]3CCCNC3)[C@H](CC(C)C)CN1CC2` [Compound 4-13, [(2R,3S,11bR)-9,10-dimethoxy-3-(2-methylpropyl)-1H,2H,3H,4H,6H,7H,11bH-pyrido[2,1-a]isoquinolin-2-yl]methyl (3S)-piperidine-3-carboxylate] were under 10 nM and “+++”.
In the case of `COc1cc2c(cc1OC)[C@H]1C[C@@H](COC(=O)C3CCNCC3C)[C@H](CC(C)C)CN1CC2` (stereo partly drawn) [Compound 4-15, [(2R,3S,11bR)-9,10-dimethoxy-3-(2-methylpropyl)-1H,2H,3H,4H,6H,7H,11bH-pyrido[2,1-a]isoquinolin-2-yl]methyl 3-methylpiperidine-4-carboxylate], in data set [1], the Ki is under 10 nM. Further, in data set [2], the “S9 Assay (ability to form compound 1-1)” value is “+”.
On the same counts, the results for `COc1cc2c(cc1OC)[C@H]1C[C@@H](COC(=O)CC3CCNC3)[C@H](CC(C)C)CN1CC2` (stereo partly drawn) [Compound 4-16, [(2R,3S,11bR)-9,10-dimethoxy-3-(2-methylpropyl)-1H,2H,3H,4H,6H,7H,11bH-pyrido[2,1-a]isoquinolin-2-yl]methyl 2-(pyrrolidin-3-yl)acetate] are under 10 nM and “+”.
In the case of `COc1cc2c(cc1OC)[C@H]1C[C@@H](COC(=O)C3(OC)CCNCC3)[C@H](CC(C)C)CN1CC2` [Compound 4-22, [(2R,3S,11bR)-9,10-dimethoxy-3-(2-methylpropyl)-1H,2H,3H,4H,6H,7H,11bH-pyrido[2,1-a]isoquinolin-2-yl]methyl 4-methoxypiperidine-4-carboxylate], the Ki in data set [1] is under 10 nM. Also, the “S9 Assay (ability to form compound 1-1)” value in data set [2] is listed as “++”.
`COc1cc2c(cc1OC)[C@H]1C[C@@H](COC(=O)[C@@H]3CCNC3)[C@H](CC(C)C)CN1CC2` [Compound 4-26, [(2R,3S,11bR)-9,10-dimethoxy-3-(2-methylpropyl)-1H,2H,3H,4H,6H,7H,11bH-pyrido[2,1-a]isoquinolin-2-yl]methyl (3R)-pyrrolidine-3-carboxylate]: the inhibition constant Ki in data set [1] is under 10 nM. Moreover, the “S9 Assay (ability to form compound 1-1)” value in data set [2] is recorded as “++”.
On the same counts, the results for `COc1cc2c(cc1OC)[C@H]1C[C@@H](COC(=O)CC3CCCN3)[C@H](CC(C)C)CN1CC2` (stereo partly drawn) [Compound 4-28, [(2R,3S,11bR)-9,10-dimethoxy-3-(2-methylpropyl)-1H,2H,3H,4H,6H,7H,11bH-pyrido[2,1-a]isoquinolin-2-yl]methyl 2-(pyrrolidin-2-yl)acetate] are under 10 nM and “++”.
`COc1cc2c(cc1OC)[C@H]1C[C@@H](COC(=O)[C@@H]3CCCNC3)[C@H](CC(C)C)CN1CC2` [Compound 4-29, [(2R,3S,11bR)-9,10-dimethoxy-3-(2-methylpropyl)-1H,2H,3H,4H,6H,7H,11bH-pyrido[2,1-a]isoquinolin-2-yl]methyl (3R)-piperidine-3-carboxylate]: the Ki in data set [1] was under 10 nM. In addition, in data set [2], the “S9 Assay (ability to form compound 1-1)” value is “+++”.
Consider `COc1cc2c(cc1OC)[C@H]1C[C@@H](COC(=O)CCCN)[C@H](CC(C)C)CN1CC2` [Compound 4-31, [(2R,3S,11bR)-9,10-dimethoxy-3-(2-methylpropyl)-1H,2H,3H,4H,6H,7H,11bH-pyrido[2,1-a]isoquinolin-2-yl]methyl 4-aminobutanoate], for which the Ki in data set [1] was under 10 nM. In data set [2], the “S9 Assay (ability to form compound 1-1)” value was “++”.
Taken in the same sequence, the figures for `COc1cc2c(cc1OC)[C@H]1C[C@@H](COC(=O)C[C@@H]3CCCN3)[C@H](CC(C)C)CN1CC2` [Compound 4-36] were under 10 nM and “+++”.
`COc1cc2c(cc1OC)[C@H]1C[C@@H](COC(=O)C[C@H]3CCNC3)[C@H](CC(C)C)CN1CC2` [Compound 4-38, [(2R,3S,11bR)-9,10-dimethoxy-3-(2-methylpropyl)-1H,2H,3H,4H,6H,7H,11bH-pyrido[2,1-a]isoquinolin-2-yl]methyl 2-[(3R)-pyrrolidin-3-yl]acetate] returned a Ki in data set [1] of under 10 nM. In addition, the “S9 Assay (ability to form compound 1-1)” value in data set [2] is listed as “+”.
In data set [1], `COc1cc2c(cc1OC)[C@H]1C[C@@H](COC(=O)NCCC(=O)O)[C@H](CC(C)C)CN1CC2` [Compound 5-1, 3-[({[(2R,3S,11bR)-9,10-dimethoxy-3-(2-methylpropyl)-1H,2H,3H,4H,6H,7H,11bH-pyrido[2,1-a]isoquinolin-2-yl]methoxy}carbonyl)amino]propanoic acid] yielded a Ki of under 10 nM. Further, the “S9 Assay (ability to form compound 1-1)” value in data set [2] is reported as “+”.
Taken in the same sequence, the figures for `COc1cc2c(cc1OC)[C@H]1C[C@@H](COC(=O)NCCCC(=O)O)[C@H](CC(C)C)CN1CC2` [Compound 5-3, 4-[({[(2R,3S,11bR)-9,10-dimethoxy-3-(2-methylpropyl)-1H,2H,3H,4H,6H,7H,11bH-pyrido[2,1-a]isoquinolin-2-yl]methoxy}carbonyl)amino]butanoic acid] were over 500 nM and “+”.
Taken in the same sequence, the figures for `COc1cc2c(cc1OC)[C@H]1C[C@@H](COC(=O)N3CCOC(CN(C)C)C3)[C@H](CC(C)C)CN1CC2` (stereo partly drawn) [Compound 5-4, [(2R,3S,11bR)-9,10-dimethoxy-3-(2-methylpropyl)-1H,2H,3H,4H,6H,7H,11bH-pyrido[2,1-a]isoquinolin-2-yl]methyl 2-[(dimethylamino)methyl]morpholine-4-carboxylate] were under 10 nM and “+”.
On the same counts, the results for `COc1cc2c(cc1OC)[C@H]1C[C@@H](COC(=O)NC3(C(=O)O)CC3)[C@H](CC(C)C)CN1CC2` [Compound 5-5, 1-[({[(2R,3S,11bR)-9,10-dimethoxy-3-(2-methylpropyl)-1H,2H,3H,4H,6H,7H,11bH-pyrido[2,1-a]isoquinolin-2-yl]methoxy}carbonyl)amino]cyclopropane-1-carboxylic acid] are 10 to 500 nM and “+”.
In turn, `COc1cc2c(cc1OC)[C@H]1C[C@@H](COC(=O)N3CCOC(CC(=O)O)C3)[C@H](CC(C)C)CN1CC2` (stereo partly drawn) [Compound 5-6, 2-[4-({[(2R,3S,11bR)-9,10-dimethoxy-3-(2-methylpropyl)-1H,2H,3H,4H,6H,7H,11bH-pyrido[2,1-a]isoquinolin-2-yl]methoxy}carbonyl)morpholin-2-yl]acetic acid] registered a Ki in data set [1] of over 500 nM. Further, the “S9 Assay (ability to form compound 1-1)” value in data set [2] was “+”.
In data set [1], `COc1cc2c(cc1OC)[C@H]1C[C@@H](COC(=O)N[C@H]3[C@@H](C(=O)O)[C@H]4C=C[C@@H]3C4)[C@H](CC(C)C)CN1CC2` [Compound 5-9, (1R,2S,3R,4S)-3-[({[(2R,3S,11bR)-9,10-dimethoxy-3-(2-methylpropyl)-1H,2H,3H,4H,6H,7H,11bH-pyrido[2,1-a]isoquinolin-2-yl]methoxy}carbonyl)amino]bicyclo[2.2.1]hept-5-ene-2-carboxylic acid] displayed a Ki of over 500 nM. Also, the “S9 Assay (ability to form compound 1-1)” value in data set [2] was “+”.
`COc1cc2c(cc1OC)[C@H]1C[C@@H](COC(=O)NCC(O)C(=O)O)[C@H](CC(C)C)CN1CC2` (stereo partly drawn) [Compound 5-11, 3-[({[(2R,3S,11bR)-9,10-dimethoxy-3-(2-methylpropyl)-1H,2H,3H,4H,6H,7H,11bH-pyrido[2,1-a]isoquinolin-2-yl]methoxy}carbonyl)amino]-2-hydroxypropanoic acid]: the Ki in data set [1] lay in the range of 10 to 500 nM. In data set [2], the “S9 Assay (ability to form compound 1-1)” value is “++”.
